Measurements published in the supplement of paper PMC5908809.

Legend:
[1] = system: normal NK cells expanded with K562-aAPC; experiment: percent inhibition of viability; higher = more inhibition; settings: 72 h, IL-2 2.5 ng/mL
Experimental: (§1)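 Drug sensitivity and resistance testing on K562-aAPC-expanded normal NK cells: 5 concentrations (10-fold steps over a 10,000-fold range), 72 h at 37 °C, viability by CellTiter-Glo normalised to DMSO and benzethonium chloride controls; DSS from the fitted curve.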

[2] = system: DERL-7 (IL-2 2.5 ng/mL); experiment: as above; settings: 72 h
[3] = system: IMC-1 (IL-2 20 ng/mL); experiment: as above; settings: 72 h
[4] = system: KAI3 (IL-2 2.5 ng/mL); experiment: as above; settings: 72 h
[5] = system: KHYG-1 (IL-2 2.5 ng/mL); experiment: as above; settings: 72 h
[6] = system: NK-92 (IL-2 2.5 ng/mL); experiment: as above; settings: 72 h
[7] = system: NK-YS (IL-2 2.5 ng/mL); experiment: as above; settings: 72 h
[8] = system: NKL (IL-2 2.5 ng/mL); experiment: as above; settings: 72 h
[9] = system: SNK-6 (IL-2 2.5 ng/mL); experiment: as above; settings: 72 h
[10] = system: YT (IL-2 2.5 ng/mL); experiment: as above; settings: 72 h
[11] = system: normal primary NK cells, pool 1 (3 donors) (IL-2 2.5 ng/mL); experiment: as above; settings: 72 h
[12] = system: normal primary NK cells, pool 1 (3 donors), resting (IL-2 0 ng/mL); experiment: as above; settings: 72 h
[13] = system: normal primary NK cells, pool 2 (3 donors) (IL-2 2.5 ng/mL); experiment: as above; settings: 72 h
[14] = system: normal primary NK cells, pool 3 (3 donors) (IL-2 2.5 ng/mL); experiment: as above; settings: 72 h
[15] = system: normal NK cells expanded with K562-aAPC; experiment: drug sensitivity score (DSS) (DSS units); higher = more sensitive; extreme values may be limits of the assay; settings: 72 h; IL-2 2.5 ng/mL
Experimental: as §1

[16] = system: DERL-7 (IL-2 2.5 ng/mL); experiment: as above; settings: 72 h
[17] = system: IMC-1 (IL-2 20 ng/mL); experiment: as above; settings: 72 h
[18] = system: KAI3 (IL-2 2.5 ng/mL); experiment: as above; settings: 72 h
[19] = system: KHYG-1 (IL-2 2.5 ng/mL); experiment: as above; settings: 72 h
[20] = system: NK-92 (IL-2 2.5 ng/mL); experiment: as above; settings: 72 h
[21] = system: NK-YS (IL-2 2.5 ng/mL); experiment: as above; settings: 72 h
[22] = system: NKL (IL-2 2.5 ng/mL); experiment: as above; settings: 72 h
[23] = system: SNK-6 (IL-2 2.5 ng/mL); experiment: as above; settings: 72 h
[24] = system: YT (IL-2 2.5 ng/mL); experiment: as above; settings: 72 h
[25] = system: normal primary NK cells, pool 1 (3 donors) (IL-2 2.5 ng/mL); experiment: as above; settings: 72 h
[26] = system: normal primary NK cells, pool 1 (3 donors), resting (IL-2 0 ng/mL); experiment: as above; settings: 72 h
[27] = system: normal primary NK cells, pool 2 (3 donors) (IL-2 2.5 ng/mL); experiment: as above; settings: 72 h
[28] = system: normal primary NK cells, pool 3 (3 donors) (IL-2 2.5 ng/mL); experiment: as above; settings: 72 h

CO[C@@H](C(=O)N1Cc2[nH]nc(NC(=O)c3ccc(N4CCN(C)CC4)cc3)c2C1)c1ccccc1 [Danusertib] (max concentration tested 10000 nM)
percent inhibition of viability [%]
Settings	1 nM	10 nM	100 nM	1000 nM	10000 nM
[1]	0.09	-2.41	-1.99	45	66.8
[2]	4.21	7.76	28.8	56.9	73.3
[3]	-7.01	-4.49	6.37	93.6	99.5
[4]	-6.41	-1.03	23.9	37.9	69.3
[5]	-6.8	-6.2	5.51	66.7	86.5
[6]	4	8.37	15.1	45.9	64.6
[7]	-2.39	-4.33	9.93	70.3	61.7
[8]	-10.8	-14.4	-11	20.2	64.9
[9]	-10.1	-21.1	-2.34	66.7	72.5
[10]	-0.26	-0.92	21.1	27.8	44.9
[11]	-7.78	14.4	8.28	17.6	41.4
[12]	2.29	22.1	18.6	2.51	-6.72
[13]	-7.19	11.2	11.8	13.2	39.9
[14]	-3.44	7.87	4.81	5.78	23.5

Settings	drug sensitivity score
[15]	8.98
[16]	14.3
[17]	17.9
[18]	10
[19]	13.2
[20]	10.4
[21]	14.6
[22]	6.51
[23]	12.2
[24]	7.27
[25]	4.29
[26]	0
[27]	3.85
[28]	1.46

c1ccc(Cn2c(-c3ccc(OC[C@H](C4CCNCC4)n4c(-c5ccccc5)nc5ccccc54)cc3)nc3ccccc32)cc1 [deltarasin] (max concentration tested 10000 nM)
percent inhibition of viability [%]
Settings	1 nM	10 nM	100 nM	1000 nM	10000 nM
[1]	-6.73	-5.61	-6.67	-4.59	100
[2]	-6.29	6.05	-2.6	15.6	100
[3]	-1.41	-1.69	-5.88	-8.23	100
[4]	1.58	6.95	3.87	19.1	99.1
[5]	-3.81	-4.92	-1.42	4.21	99.4
[6]	-6.78	-14.8	-7.87	17.8	98.7
[7]	1.38	0.11	0.9	9.01	99.1
[8]	-1.26	-0.19	0.54	13.1	100
[9]	-2.79	1.66	-4.21	-2.37	100
[10]	-7.64	-4.86	-5.15	6.64	99
[11]	-6.29	-12.3	-0.84	3.6	100
[12]	-29	-22.3	-17.1	22.4	100
[13]	3.52	-1.56	-7.68	10.8	100
[14]	-5.09	-3.8	-9.07	2.9	101

Settings	drug sensitivity score
[15]	5.21
[16]	8.12
[17]	5
[18]	8.58
[19]	6.1
[20]	8.37
[21]	6.93
[22]	7.72
[23]	5.39
[24]	6.49
[25]	6.08
[26]	9.04
[27]	7.32
[28]	6.03
